# In patent US20070213272A1, “Transmucosal Administration Agent Containing Pth” (priority 2004, published 2007):
# “And” between values parts separate entries of the source, which are not always exact repeats. Identical values can stand only once.
# Assays:
# [1] = test system: patients; settings: subcutaneous administration, Neer et al. 2001; cited from earlier work
# [2] = PTH(1-34) level in plasma after caudal vein and subcutaneous administration (pharmacokinetics); format: in vivo, rat
# Description: Changes of PTH(1-34) level in plasma by caudal vein administration (iv) and subcutaneous administration (sc) were examined. hPTH(1-34) was diluted with phosphate buffer solution (PBS)/0.05% Tween 80 and adjusted to 10 nmol/ml. Female SD-IGS rats at 8 weeks of age (Charles River Japan, Inc.) were used for the experiment. A single dose administration was carried out by caudal vein administration and subcutaneous administration, and blood was collected from tail vein using a capillary tube for blood collection in a time-dependent manner (at pre-administration, 2.5, 5, 7.5, 10, 15, 30, 60, 90, 120 min.). After EDTA plasma was isolated, the collected blood samples were stored at -80° C. until the hPTH(1-34) level was measured. The PTH(1-34) level was measured by ELISA method using PTH(1-34) (human)-EIA kit (Peninsula Laboratories).
# [3] = test system: patients with primary osteoporosis; assay: Safety evaluation: adverse events and side effects in transnasal clinical study; format: in vivo, human
# Description: […] Here, hPTH1-34 transnasal administration formulation was produced by the method in Example 2 of International Patent Publication No. WO02/02136. Using a nebulizer VP-7 (Valois) which uniformly sprays 100 μL of the drug solution by pumping once, one pumping for each nasal cavity, the total of 200 μL of the drug solution was sprayed daily. […] A single dose containing each amount of hPTH(1-34) was administered once a day on consecutive days of 12 weeks, and effectiveness and safety of each amount was confirmed. Safety evaluation: the occurrence number of adverse events was counted and evaluated. In counting adverse and other events, coding to preferred terms (PT) and classification of adverse event names into system organ classes (SOC) were conducted based on “MedDRA Version6.1”.
# [4] = rat, iv (caudal vein) single dose, 10 nmol/ml solution, female SD-IGS rats, plasma
# [5] = rat, sc single dose, 10 nmol/ml solution, female SD-IGS rats, plasma
# [6] = transnasal, all dose groups, 97 subjects for safety evaluation
smiles,measurement,setting,value
CC[C@H](C)[C@H](NC(=O)[C@H](CCC(=O)O)NC(=O)[C@H](CO)NC(=O)[C@@H](NC(=O)[C@@H](N)CO)C(C)C)C(=O)N[C@@H](CCC(N)=O)C(=O)N[C@@H](CC(C)C)C(=O)N[C@@H](CCSC)C(=O)N[C@@H](Cc1cnc[nH]1)C(=O)N[C@@H](CC(N)=O)C(=O)N[C@@H](CC(C)C)C(=O)NCC(=O)N[C@@H](CCCCN)C(=O)N[C@@H](Cc1cnc[nH]1)C(=O)N[C@@H](CC(C)C)C(=O)N[C@@H](CC(N)=O)C(=O)N[C@@H](CO)C(=O)N[C@@H](CCSC)C(=O)N[C@@H](CCC(=O)O)C(=O)N[C@@H](CCCN=C(N)N)C(=O)N[C@H](C(=O)N[C@@H](CCC(=O)O)C(=O)N[C@@H](Cc1c[nH]c2ccccc12)C(=O)N[C@@H](CC(C)C)C(=O)N[C@@H](CCCN=C(N)N)C(=O)N[C@@H](CCCCN)C(=O)N[C@@H](CCCCN)C(=O)N[C@@H](CC(C)C)C(=O)N[C@@H](CCC(N)=O)C(=O)N[C@@H](CC(=O)O)C(=O)N[C@H](C(=O)N[C@@H](Cc1cnc[nH]1)C(=O)N[C@@H](CC(N)=O)C(=O)N[C@@H](Cc1ccccc1)C(=O)O)C(C)C)C(C)C [hPTH(1-34)],frequency of dizziness,[1],9%
same,frequency of headache,[1],13%
same,frequency of leg cramps,[1],3%
same,frequency of nausea,[1],18%
same,PK profile of iv administration compared with sc administration,"[2]; iv versus sc single dose, rats",more pulse-like PK
same,AUC,[2]; [4],17.8 ng·h/mL
same,half-life,[2]; [4],6.9 min
same,AUC,[2]; [5],3.83 ng·h/mL
same,Cmax,[2]; [5],9 ng/mL
same,Tmax,[2]; [5],20 min
same,half-life,[2]; [5],10.8 min
same,number of adverse events,"[3]; transnasal, 250-μg group",46 events
same,number of side effect events,"[3]; transnasal, 250-μg group",12 events
same,subjects with adverse events,"[3]; transnasal, 250-μg group",71.0%
same,subjects with side effects,"[3]; transnasal, 250-μg group",22.6%
same,number of adverse events,"[3]; transnasal, 500-μg group",51 events
same,number of side effect events,"[3]; transnasal, 500-μg group",10 events
same,subjects with adverse events,"[3]; transnasal, 500-μg group",76.7%
same,subjects with side effects,"[3]; transnasal, 500-μg group",26.7%
same,number of adverse events,"[3]; transnasal, 1,000-μg group",48 events
same,number of side effect events,"[3]; transnasal, 1,000-μg group",13 events
same,subjects with adverse events,"[3]; transnasal, 1,000-μg group",69.0%
same,subjects with side effects,"[3]; transnasal, 1,000-μg group",24.1%
same,number of adverse events,"[3]; transnasal, 1,500-μg group",10 events
same,number of side effect events,"[3]; transnasal, 1,500-μg group",2 events
same,subjects with adverse events,"[3]; transnasal, 1,500-μg group",71.4%
same,subjects with side effects,"[3]; transnasal, 1,500-μg group",28.6%
same,frequency of leg cramps,"[3]; transnasal, all dose groups",no observation and 0%
same,frequency of nausea,"[3]; transnasal, all dose groups",no observation and 0%
same,number of side effect events,"[3]; transnasal, all dose groups",37 events
same,occurrence rate of clinical examination (SOC),"[3]; transnasal, all dose groups",19.6%
same,occurrence rate of dizziness,"[3]; transnasal, all dose groups",4.1%
same,occurrence rate of headache,"[3]; transnasal, all dose groups",7.2%
same,occurrence rate of heat failure (SOC),"[3]; transnasal, all dose groups",21.6%
same,occurrence rate of infectious disease and parasitic disease (SOC),"[3]; transnasal, all dose groups",18.6%
same,occurrence rate of nasopharyngitis (PT),"[3]; transnasal, all dose groups",14.4%
same,occurrence rate of supraventricular premature beat (PT),"[3]; transnasal, all dose groups",12.4%
same,occurrence rate of ventricular premature beat (PT),"[3]; transnasal, all dose groups",5.2%
same,side effect events with the occurrence rate of 5% or more,"[3]; transnasal, all dose groups",no event
same,subjects with side effects,"[3]; transnasal, all dose groups",24.7%
same,number of adverse events,[3]; [6],155 events
same,subjects with adverse events,[3]; [6],72.2%
